Molecules are shown by their SMILES. Counter-ions that a name gives are not always drawn.

One may read the IC90 as the concentration needed for an effect of 90%.

The first assay concerns Acinetobacter baumannii ATCC 17978. The assay is described as follows: Antimicrobial susceptibility testing: 90% growth inhibitory concentration (IC90) determination. Format: cell-based. The conditions noted are these: 90% growth inhibitory concentration; Acinetobacter baumannii ATCC17978; Iso-Sensitest broth, OD 600 nm over 16h; read-out: ATCC17978 IC90. Summed up:
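Compounds serially twofold diluted (e.g. 50 to 0.097 μM final) in Iso-Sensitest broth, inoculated at ~5×10^(5) CFU/ml, incubated at 35±2° C. OD600 read every 20 minutes over 16h. IC90 taken as concentration inhibiting 90% of growth during logarithmic phase.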
As to `CCc1cc(Nc2nccn3c(-c4ccc(Oc5ncccn5)c(F)c4F)cnc23)ccc1C(=O)NCCNC(=O)[C@H](N)CCCNC(=N)N` [Example 437, N-[2-[[(2R)-2-amino-5-guanidino-pentanoyl]amino]ethyl]-4-[[3-(2,3-difluoro-4-pyrimidin-2-yloxy-phenyl)imidazo[1,2-a]pyrazin-8-yl]amino]-2-ethyl-benzamide; formic acid], the IC90 was 410 nM.
The same measure, in the same setting: the value for `CCc1cc(Nc2nccn3c(-c4ccc(Oc5ncccn5)c(F)c4F)cnc23)ccc1C(=O)NCCNC(=O)[C@@H](N)CCNC(=N)N` [Example 438, N-[2-[[(2S)-2-amino-4-guanidino-butanoyl]amino]ethyl]-4-[[3-(2,3-difluoro-4-pyrimidin-2-yloxy-phenyl)imidazo[1,2-a]pyrazin-8-yl]amino]-2-ethyl-benzamide; formic acid] was 550 nM; that for `CCc1cc(Nc2nccn3c(-c4ccc(Oc5ncccn5)c(F)c4F)cnc23)ccc1C(=O)NCCNC(=O)[C@H](N)CCNC(=N)N` [Example 439, N-[2-[[(2R)-2-amino-4-guanidino-butanoyl]amino]ethyl]-4-[[3-(2,3-difluoro-4-pyrimidin-2-yloxy-phenyl)imidazo[1,2-a]pyrazin-8-yl]amino]-2-ethyl-benzamide; formic acid] was 340 nM.

Still in this assay, the particulars now being: Acinetobacter baumannii, ATCC17978, 16 h, 90% growth inhibitory concentration; Acinetobacter baumannii ATCC17978; Iso-Sensitest broth, OD 600 nm over 16h; read-out: ATCC17978 IC90.
`CCc1cc(Nc2nccn3c(-c4ccc(OCC#CCO)c(F)c4F)cnc23)ccc1C(=O)NCCCN` [Example 419, N-(3-aminopropyl)-4-[[3-[2,3-difluoro-4-(4-hydroxybut-2-ynoxy)phenyl]imidazo[1,2-a]pyrazin-8-yl]amino]-2-ethyl-benzamide]: the IC90 came to 670 nM.
Regarding `CCc1cc(Nc2nccn3c(-c4ccc(Oc5ccccn5)c(F)c4F)cnc23)ccc1C(=O)NCCNC(=O)[C@@H](N)CCNC(=N)N` [Example 420, N-[2-[[(2S)-2-amino-4-guanidino-butanoyl]amino]ethyl]-4-[[3-[2,3-difluoro-4-(2-pyridyloxy)phenyl]imidazo [1,2-a]pyrazin-8-yl]amino]-2-ethyl-benzamide; formic acid], the IC90 is 720 nM.
The same measure, in the same setting: the value for `CCc1cc(Nc2nccn3c(-c4ccc(Oc5ccccn5)c(F)c4F)cnc23)ccc1C(=O)NCCNC(=O)CCN` [Example 421, N-[2-(3-aminopropanoylamino)ethyl]-4-[[3-[2,3-difluoro-4-(2-pyridyloxy)phenyl]imidazo [1,2-a]pyrazin-8-yl]amino]-2-ethyl-benzamide; formic acid] was 440 nM; that for `CCc1cc(Nc2nccn3c(-c4ccc(Oc5ccccn5)c(F)c4F)cnc23)ccc1C(=O)NCCNC(=O)[C@H](N)CCCNC(=N)N` [Example 422, N-[2-[[(2R)-2-amino-5-guanidino-pentanoyl]amino]ethyl]-4-[[3-[2,3-difluoro-4-(2-pyridyloxy)phenyl]imidazo [1,2-a]pyrazin-8-yl]amino]-2-ethyl-benzamide; formic acid] was 870 nM.
On the same count and under the same terms, the value for `CCc1cc(Nc2nccn3c(-c4ccc(OC)c(F)c4F)cnc23)ccc1C(=O)NCC(=O)NCCO` [Example 423, 4-((3-(2,3-difluoro-4-methoxyphenyl)imidazo[1,2-a]pyrazin-8-yl)amino)-2-ethyl-N-(2-((2-hydroxyethyl)amino)-2-oxoethyl)benzamide] was 210 nM; that for `CCc1cc(Nc2nccn3c(-c4ccc(Oc5ccc(F)cn5)c(F)c4F)cnc23)ccc1C(=O)NCCNC(=O)[C@H](N)CCCNC(=N)N` [Example 424, N-[2-[[(2R)-2-amino-5-guanidino-pentanoyl]amino]ethyl]-4-[[3-[2,3-difluoro-4-[(5-fluoro-2-pyridyl)oxy]phenyl]imidazo [1,2-a]pyrazin-8-yl]amino]-2-ethyl-benzamide; formic acid] was 900 nM; that for `CCc1cc(Nc2nccn3c(-c4ccc(Oc5ccc(F)cn5)c(F)c4F)cnc23)ccc1C(=O)NCCNC(=O)CCN` [Example 425, N-[2-(3-aminopropanoylamino)ethyl]-4-[[3-[2,3-difluoro-4-[(5-fluoro-2-pyridyl)oxy]phenyl]imidazo [1,2-a]pyrazin-8-yl]amino]-2-ethyl-benzamide; formic acid] was 600 nM.
Still for that read-out and setting: the value for `CCc1cc(Nc2nccn3c(-c4ccc(Oc5ccccn5)c(F)c4F)cnc23)ccc1C(=O)NCCNC(=O)[C@H](N)CCNC(=N)N` [Example 426, N-[2-[[(2R)-2-amino-4-guanidino-butanoyl]amino]ethyl]-4-[[3-[2,3-difluoro-4-(2-pyridyloxy)phenyl]imidazo [1,2-a]pyrazin-8-yl]amino]-2-ethyl-benzamide; formic acid] was 820 nM; that for `COc1ccc(-c2cnc3c(Nc4cc(C)c(C(=O)NCCCN)c(F)c4)nccn23)c(F)c1F` [Example 427, N-(3-aminopropyl)-4-((3-(2,3-difluoro-4-methoxyphenyl)imidazo[1,2-a]pyrazin-8-yl)amino)-2-fluoro-6-methylbenzamide formate] was 690 nM.
For the compound `CCc1cc(Nc2nccn3c(-c4ccc(OC)c(F)c4F)cnc23)ccc1C(=O)NCC(=O)NCCNC` [Example 428, 4-[[3-(2,3-difluoro-4-methoxy-phenyl)imidazo[1,2-a]pyrazin-8-yl]amino]-2-ethyl-N-[2-[2-(methylamino)ethylamino]-2-oxo-ethyl]benzamide; formic acid], the concentration for an effect of 90% (IC90) is 410 nM.
Same read-out and setting: the value for `CCc1cc(Nc2nccn3c(-c4ccc(Oc5ccc(F)cn5)c(F)c4F)cnc23)ccc1C(=O)NCCNC(=O)[C@H](N)CCNC(=N)N` [Example 429, N-[2-[[(2R)-2-amino-4-guanidino-butanoyl]amino]ethyl]-4-[[3-[2,3-difluoro-4-[(5-fluoro-2-pyridyl)oxy]phenyl]imidazo [1,2-a]pyrazin-8-yl]amino]-2-ethyl-benzamide; formic acid] was 620 nM; that for `CCc1cc(Nc2nccn3c(-c4ccc(OC)c(F)c4F)cnc23)ccc1C(=O)NCC(=O)NCCN` [Example 430, N-[2-(2-aminoethylamino)-2-oxo-ethyl]-4-[[3-(2,3-difluoro-4-methoxy-phenyl)imidazo[1,2-a]pyrazin-8-yl]amino]-2-ethyl-benzamide; formic acid] was 230 nM; that for `CCc1cc(Nc2nccn3c(-c4ccc(Oc5ncccn5)c(F)c4F)cnc23)ccc1C(=O)NCCNC(=O)CCN` [Example 431, N-[2-(3-aminopropanoylamino)ethyl]-4-[[3-(2,3-difluoro-4-pyrimidin-2-yloxy-phenyl)imidazo[1,2-a]pyrazin-8-yl]amino]-2-ethyl-benzamide; formic acid] was 530 nM.
Still for that read-out and setting: under `CCc1cc(Nc2nccn3c(-c4ccc(Oc5ccncn5)c(F)c4F)cnc23)ccc1C(=O)NCCNC(=O)CCN` [Example 432, N-[2-(3-aminopropanoylamino)ethyl]-4-[[3-(2,3-difluoro-4-pyrimidin-4-yloxy-phenyl)imidazo[1,2-a]pyrazin-8-yl]amino]-2-ethyl-benzamide; formic acid] stands 500 nM; under `CCc1cc(Nc2nccn3c(-c4ccc(Oc5ccncn5)c(F)c4F)cnc23)ccc1C(=O)NCCNC(=O)[C@H](N)CCCNC(=N)N` [Example 433, N-[2-[[(2R)-2-amino-5-guanidino-pentanoyl]amino]ethyl]-4-[[3-(2,3-difluoro-4-pyrimidin-4-yloxy-phenyl)imidazo[1,2-a]pyrazin-8-yl]amino]-2-ethyl-benzamide; formic acid], 460 nM; under `CCc1cc(Nc2nccn3c(-c4ccc(OC)c(F)c4F)cnc23)ccc1C(=O)NCC(=O)NCCN(C)C` [Example 434, 4-[[3-(2,3-difluoro-4-methoxy-phenyl)imidazo[1,2-a]pyrazin-8-yl]amino]-N-[2-[2-(dimethylamino)ethylamino]-2-oxo-ethyl]-2-ethyl-benzamide; formic acid], 250 nM.
Still for that read-out and setting: the value for `COc1ccc(-c2cnc3c(Nc4cc(F)c(C(=O)NCCCN)c(F)c4)nccn23)c(F)c1F` [Example 435, N-(3-aminopropyl)-4-((3-(2,3-difluoro-4-methoxyphenyl)imidazo[1,2-a]pyrazin-8-yl)amino)-2,6-difluorobenzamide] was 730 nM.
On to `COc1ccc(-c2cnc3c(Nc4cc(F)c(C(=O)NCCCN)c(Cl)c4)nccn23)c(F)c1F` [Example 436, N-(3-aminopropyl)-2-chloro-4-((3-(2,3-difluoro-4-methoxyphenyl)imidazo[1,2-a]pyrazin-8-yl)amino)-6-fluorobenzamide], for which the IC90 worked out at 650 nM.
Still for that read-out and setting: under `CCc1cc(Nc2nccn3c(-c4ccc(Oc5ccncn5)c(F)c4F)cnc23)ccc1C(=O)NCCNC(=O)[C@@H](N)CCNC(=N)N` [Example 440, N-[2-[[(2S)-2-amino-4-guanidino-butanoyl]amino]ethyl]-4-[[3-(2,3-difluoro-4-pyrimidin-4-yloxy-phenyl)imidazo[1,2-a]pyrazin-8-yl]amino]-2-ethyl-benzamide; formic acid] stands 520 nM; under `CCc1cc(Nc2nccn3c(-c4ccc(Oc5ccncn5)c(F)c4F)cnc23)ccc1C(=O)NCCNC(=O)[C@H](N)CCNC(=N)N` [Example 441, N-[2-[[(2R)-2-amino-4-guanidino-butanoyl]amino]ethyl]-4-[[3-(2,3-difluoro-4-pyrimidin-4-yloxy-phenyl)imidazo[1,2-a]pyrazin-8-yl]amino]-2-ethyl-benzamide; formic acid], 460 nM; under `CCc1cc(Nc2nccn3c(-c4ccc(OC(F)F)c(F)c4F)cnc23)ccc1C(=O)NCCCO[C@@H]1O[C@H](CO)[C@@H](O)[C@H](O)[C@H]1O` [Example 442, 4-((3-(4-(difluoromethoxy)-2,3-difluorophenyl)imidazo[1,2-a]pyrazin-8-yl)amino)-2-ethyl-N-(3-(((2R,3R,4S,5S,6R)-3,4,5-trihydroxy-6-(hydroxymethyl)tetrahydro-2H-pyran-2-l)oxy)propyl)benzamide], 410 nM.
